# Test results taken from patent US10065990B2, “Cyclic peptide compound, and preparation method, pharmaceutical composition and use thereof” (HANGZHOU GUANYU BIO-MEDICAL CO., LTD, priority 2013, dated 2018).
# Where two headings read alike, the source gives them in different places.
# What was measured:
# HDAC2 = HDAC2 (Homo sapiens, UniProt Q92769); test: HDAC biochemical activity measurement (fluorescent substrate deacetylation);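 note: HDAC2 enzyme with an acetyl-lysine fluorescent substrate, then developer added, fluorescence read at excitation 360 nm and emission 460 nm, inhibition measured across several compound concentrations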; details: 37° C. 30 minutes
# [1] = test system: A549 (human lung cancer cells); test: MTT cancer cell growth inhibition; type: cell-based; details: MTT
# Summary of the method: (§1)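 Using a 72 h MTT format, triplicate wells of 1500 cells received compound concentrations from 10^−5 to 10^−10 M. Formazan was read at 570 nm after DMSO dissolution, and GI50 was derived from viability.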
# [2] = test system: Bel-7402 (human hepatoma cells); test: MTT cancer cell growth inhibition; type: cell-based; details: MTT, 72 hours incubation, Bel-7402 cells, read-out: GI50 Bel-7402
# Summary of the method: as §1
# [3] = test system: DU145 (human prostate cancer cells); test: MTT cancer cell growth inhibition; type: cell-based; details: MTT
# Summary of the method: as §1
# [4] = test system: H1975 (non-small cell lung adenocarcinoma); test: MTT cancer cell growth inhibition; type: cell-based; details: MTT, 72 hours incubation, H1975 cells, read-out: GI50 H1975
# Summary of the method: as §1
# [5] = test system: HCC827 (human non-small cell lung cancer cells); test: MTT cancer cell growth inhibition; type: cell-based; details: MTT, 72 hours incubation, HCC827 cells, read-out: GI50 HCC827
# Summary of the method: as §1
# [6] = test system: K562 (human leukemia cells); test: MTT cancer cell growth inhibition; type: cell-based; details: MTT, 72 hours incubation, K562 cells, read-out: GI50 K562
# Summary of the method: as §1
# [7] = test system: MCF-7 (human breast cancer cells); test: MTT cancer cell growth inhibition; type: cell-based
# Summary of the method: as §1
# [8] = test system: MOLT-4 (human acute lymphoblastic leukemia cells); test: MTT cancer cell growth inhibition; type: cell-based; details: MTT
# Summary of the method: as §1
# [9] = test system: PANC-1 (Pac-1, human pancreatic cancer cells); test: MTT cancer cell growth inhibition; type: cell-based; details: MTT
# Summary of the method: as §1
# [10] = test system: U937 (human leukemia cells); test: MTT cancer cell growth inhibition; type: cell-based; details: MTT
# Summary of the method: as §1
# [11] = test system: lncap (prostate cancer cells); test: MTT cancer cell growth inhibition; type: cell-based; details: MTT
# Summary of the method: as §1
# HDAC11 = target: T1, HDAC11 (Homo sapiens, UniProt Q96DB2); test: HDAC biochemical activity measurement (fluorescent substrate deacetylation);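 note: HDAC11 enzyme acting on an acetyl-lysine fluorogenic substrate, then a developer frees the fluorophore, read at excitation 360 nm and emission 460 nm, IC50 over a compound dilution series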
# T1 sequence (Q96DB2 1-347): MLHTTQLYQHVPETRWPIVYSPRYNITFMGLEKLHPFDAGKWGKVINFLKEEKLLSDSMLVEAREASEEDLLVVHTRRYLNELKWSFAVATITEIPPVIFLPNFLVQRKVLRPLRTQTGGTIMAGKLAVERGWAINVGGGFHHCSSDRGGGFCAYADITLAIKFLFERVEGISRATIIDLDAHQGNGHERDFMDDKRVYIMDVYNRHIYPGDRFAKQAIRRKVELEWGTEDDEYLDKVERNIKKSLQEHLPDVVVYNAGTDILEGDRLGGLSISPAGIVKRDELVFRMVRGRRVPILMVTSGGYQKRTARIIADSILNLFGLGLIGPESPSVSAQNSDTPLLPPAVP
# [12] = read-out: IC50 HDAC11, HDAC11, 37° C. 30 minutes
# [13] = Homo sapiens, A549, 72 h, A549 cells, 72 hours incubation, read-out: GI50 A54
# [14] = Homo sapiens, DU-145, 72 h, DU145 cells, 72 hours incubation, read-out: GI50 Du1
# [15] = Homo sapiens, MCF7, 72 h, MCF-7 cells, 72 hours incubation, read-out: GI50 MCF
# [16] = Homo sapiens, MOLT-4, 72 h, MOLT-4 cells, 72 hours incubation, read-out: GI50 Mol
# [17] = Homo sapiens, PANC-1, 72 h, PANC-1 cells, 72 hours incubation, read-out: GI50 PAN
# [18] = Homo sapiens, U-937, 72 h, U937 cells, 72 hours incubation, read-out: GI50 U93
# [19] = Homo sapiens, LNCaP, 72 h, lncap cells, 72 hours incubation, read-out: GI50 lnca
# [20] = Homo sapiens, A549, 72 h, 72 hours incubation, read-out: GI50 A54
# [21] = Homo sapiens, DU-145, 72 h, 72 hours incubation, read-out: GI50 Du1
# [22] = Homo sapiens, MCF7, 72 h, 72 hours incubation, read-out: GI50 MCF
# [23] = Homo sapiens, MOLT-4, 72 h, 72 hours incubation, read-out: GI50 Mol
# [24] = Homo sapiens, PANC-1, 72 h, 72 hours incubation, read-out: GI50 PAN
# [25] = Homo sapiens, U-937, 72 h, 72 hours incubation, read-out: GI50 U93
# [26] = Homo sapiens, LNCaP, 72 h, 72 hours incubation, read-out: GI50 lnca
# [27] = Homo sapiens, A549, 72 h, 72 hours, present invention, read-out: GI50 A549, a
# [28] = Homo sapiens, DU-145, 72 h, 72 hours, present invention, read-out: GI50 Du145, a
# [29] = Homo sapiens, MCF7, 72 h, 72 hours, present invention, read-out: GI50 MCF7, a
# [30] = Homo sapiens, MOLT-4, 72 h, 72 hours, present invention, read-out: GI50 Molt-4, a
# [31] = Homo sapiens, PANC-1, 72 h, 72 hours, present invention, read-out: GI50 PANC-1, a
# [32] = Homo sapiens, U-937, 72 h, 72 hours, present invention, read-out: GI50 U937, a
# [33] = Homo sapiens, LNCaP, 72 h, 72 hours, present invention, read-out: GI50 lncap, a
# HDAC2, sequence (Q92769 whole entry, species assumed): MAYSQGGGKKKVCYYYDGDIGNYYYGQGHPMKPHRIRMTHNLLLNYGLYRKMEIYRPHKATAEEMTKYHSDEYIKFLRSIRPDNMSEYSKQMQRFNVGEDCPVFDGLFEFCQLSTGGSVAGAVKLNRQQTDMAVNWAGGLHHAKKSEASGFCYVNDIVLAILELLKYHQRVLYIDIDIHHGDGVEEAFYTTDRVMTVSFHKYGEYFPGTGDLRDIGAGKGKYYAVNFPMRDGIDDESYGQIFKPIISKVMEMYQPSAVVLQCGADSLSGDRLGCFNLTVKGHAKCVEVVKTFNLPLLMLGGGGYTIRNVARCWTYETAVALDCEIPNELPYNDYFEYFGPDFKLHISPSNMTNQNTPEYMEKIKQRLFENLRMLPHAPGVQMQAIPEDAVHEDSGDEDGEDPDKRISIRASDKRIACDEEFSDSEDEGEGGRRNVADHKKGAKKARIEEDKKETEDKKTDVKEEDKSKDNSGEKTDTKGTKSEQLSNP
SMILES,IC50 (HDAC2),IC50 (HDAC11; [12]),"GI50 ([2]; Homo sapiens, Bel-7402, 72 h)","GI50 ([4]; Homo sapiens, NCI-H1975, 72 h)","GI50 ([5]; Homo sapiens, HCC827, 72 h)","GI50 ([6]; Homo sapiens, K562, 72 h)",IC50 (HDAC11),"GI50 [1, 20]","GI50 [3, 21]","GI50 [7, 22]","GI50 [8, 23]","GI50 [9, 24]","GI50 [10, 25]","GI50 [11, 26]",also measured
C/C=C1\NC(=O)c2cc(SC)cc(n2)CNC(=O)C[C@@H](/C=C/CCSC(C)=O)OC(=O)[C@H](C(C)C)NC1=O [Compound 224],335 nM,279 nM,,,,,,,,,,,,,"GI50 ([1]; A549 cells, 72 hours incubation, read-out: GI50 A54): 50 nM; GI50 [2]: 23 nM; GI50 ([3]; DU145 cells, 72 hours incubation, read-out: GI50 Du1): 50 nM; GI50 [4]: 96 nM; GI50 [5]: 52 nM; GI50 [6]: 23 nM; GI50 ([7]; MCF-7 cells, 72 hours incubation, read-out: GI50 MCF): 40 nM; GI50 ([8]; MOLT-4 cells, 72 hours incubation, read-out: GI50 Mol): 30 nM; GI50 ([9]; PANC-1 cells, 72 hours incubation, read-out: GI50 PAN): 60 nM; GI50 ([10]; U937 cells, 72 hours incubation, read-out: GI50 U93): 30 nM; GI50 ([11]; lncap cells, 72 hours incubation, read-out: GI50 lnca): 30 nM"
C/C=C1\NC(=O)c2nc(ccc2SCCC)CNC(=O)C[C@@H](/C=C/CCSC(=O)CCCCCCC)OC(=O)[C@H](CC)NC1=O [Compound 174],32 nM,,41 nM,57 nM,46 nM,13 nM,98 nM,,,,,,,,"GI50 [1, 13]: 50 nM; GI50 [3, 14]: 50 nM; GI50 [7, 15]: 80 nM; GI50 [8, 16]: 20 nM; GI50 [9, 17]: 100 nM; GI50 [10, 18]: 70 nM; GI50 [11, 19]: 30 nM"
C/C=C1\NC(=O)c2cc(F)cc(n2)CNC(=O)C[C@@H](/C=C/CCSC(=O)CCCCCCC)OC(=O)[C@H](CC)NC1=O [Compound 55],34 nM,83 nM,81 nM,52 nM,81 nM,36 nM,,50 nM,30 nM,70 nM,20 nM,80 nM,50 nM,20 nM,
CCCCCCCC(=O)SCC/C=C/[C@@H]1CC(=O)NCc2cccc(n2)C(=O)NCC(=O)N[C@@H](C(C)C)C(=O)O1 [Compound 246],69 nM,235 nM,38 nM,63 nM,53 nM,12 nM,,,,,,,,,"GI50 [1, 13]: 110 nM; GI50 [1, 27]: 110 nM; GI50 [3, 14]: 20 nM; GI50 [3, 28]: 20 nM; GI50 [7, 29]: 310 nM; GI50 [7, 15]: 310 nM; GI50 [8, 16]: 910 nM; GI50 [8, 30]: 910 nM; GI50 [9, 31]: 870 nM; GI50 [9, 17]: 870 nM; GI50 [10, 32]: 110 nM; GI50 [10, 18]: 110 nM; GI50 [11, 33]: 130 nM; GI50 [11, 19]: 130 nM"
C/C=C1\NC(=O)c2cccc(n2)CNC(=O)C[C@@H](/C=C/CCSC(=O)CCCCCCC)OC(=O)[C@H](CC)NC1=O [Compound 9],64 nM,101 nM,83 nM,26 nM,53 nM,83 nM,,80 nM,,30 nM,10 nM,60 nM,,,"GI50 [1, 27]: 80 nM; GI50 [3, 28]: 2 nM; GI50 [7, 29]: 30 nM; GI50 [8, 30]: 11 nM; GI50 [9, 31]: 60 nM; GI50 [10, 32]: 1 nM; GI50 [11, 33]: 9 nM"
C/C=C1\NC(=O)c2cc(F)cc(n2)CNC(=O)C[C@@H](/C=C/CCSC(C)=O)OC(=O)[C@H](CCCCNC(=O)OCC2c3ccccc3-c3ccccc32)NC1=O [Compound 76],36 nM,94 nM,72 nM,34 nM,72 nM,17 nM,,50 nM,10 nM,30 nM,20 nM,70 nM,30 nM,20 nM,
C/C=C1\NC(=O)c2nc(ccc2F)CNC(=O)C[C@@H](/C=C/CCSC(=O)CCCCCCC)OC(=O)[C@H](CC)NC1=O [Example 54],24 nM,,51 nM,43 nM,51 nM,29 nM,99 nM,60 nM,20 nM,60 nM,30 nM,50 nM,40 nM,30 nM,
C/C=C1\NC(=O)c2nc(ccc2F)CNC(=O)C[C@@H](/C=C/CCSC(C)=O)OC(=O)[C@H](C)NC1=O [Example 63],58 nM,,94 nM,34 nM,94 nM,53 nM,91 nM,50 nM,50 nM,50 nM,40 nM,90 nM,30 nM,40 nM,
